Key:
[1] = system: mutTel24FID (DNA, G4) TTTGGGTTAGGGTTAGGGTTAGGGA; experiment: fluorescent intercalator displacement; conditions: K+ (10 mM KH2PO4); pH 5.7; thiazole orange 2 μM displaced
[2] = system: hTeloC (DNA, i motif) CCCTAACCCTAACCCTAACCCT; experiment: CD melting; conditions: Na+ (10 mM sodium phosphate); pH 5.7; 5 equivalents of compound, 10-15 μM DNA
[3] = system: hTeloCFID (DNA, i motif) TAACCCTAACCCTAACCCTAACCC; experiment: fluorescent intercalator displacement; conditions: Na+ (10 mM NaH2PO4); pH 5.7; thiazole orange 2 μM displaced
[4] = system: mutTel24 (DNA, G4) TTGGGTTAGGGTTAGGGTTAGGGA; experiment: CD melting; conditions: K+ (10 mM potassium phosphate); pH 5.7; 5 equivalents of compound, 10-15 μM DNA

Row | Structure (SMILES) | DC50 [1] | ΔT1/2 [2] | DC50 [3] | ΔT1/2 [4]
1 | O=C1c2c(O)ccc(O)c2C(=O)c2c(NCCNCCO)ccc(NCCNCCO)c21 | 0.95 ± 6.07E-03 μM | -9.9 ± 0.5 °C | 1.34 ± 6.99E-03 μM | +4.5 ± 0.5 °C
2 | COc1ccc2cc3[n+](cc2c1OC)CCc1cc2c(cc1-3)OCO2 | 1.26 ± 7.22E-03 μM | -0.8 ± 0.5 °C | 1.46 ± 5.88E-03 μM | +12.4 ± 0.5 °C
3 | Cc1cc2c3c([n+](C)c4ccc(F)cc4c3c1)-c1cc(F)ccc1N2C |  | -0.3 ± 0.5 °C |  | +20.6 ± 0.5 °C

Results, then the compound that gave them:

Row | DC50 [1] | ΔT1/2 [2] | DC50 [3] | ΔT1/2 [4] | Structure (SMILES)
4 | 0.50 ± 1.95E-03 μM | -9.2 ± 0.5 °C | 0.87 ± 8.08E-04 μM | +8.9 ± 0.5 °C | CN(C)c1ccc(Nc2c3ccc(NC(=O)CCN4CCCC4)cc3nc3cc(NC(=O)CCN4CCCC4)ccc23)cc1
5 | 0.39 ± 1.42E-03 μM | -6.8 ± 0.5 °C | 0.95 ± 3.79E-03 μM | +14.4 ± 0.5 °C | C[n+]1cc(NC(=O)c2ccc3ccc4ccc(C(=O)Nc5cc6ccccc6[n+](C)c5)nc4c3n2)cc2ccccc21
6 | 9.42 ± 3.90E-02 μM | +0.8 ± 0.5 °C | 18.02 ± 5.89E-02 μM | +8.8 ± 0.5 °C | NCCOc1cc(C(=O)Nc2cc(OCCN)c3ccccc3n2)nc(C(=O)Nc2cc(OCCN)c3ccccc3n2)c1

— PMC6066642 (2018)
